From US8993604B2, “Treatment and prevention of dengue virus infections” (Siga Technologies, Inc., priority 2009, dated 2015)
Like-named read-outs stand apart in the source and are kept apart here.

System: Dengue-2 (Strain New Guinea C)
Test: Viral yield assay in Vero cells
Type: cell-based
Settings: Dengue virus, read-out: Activity (anti-dengue 2 viral activity, EC50 class)
Description: Compounds that were active in the primary screen were tested for activity in viral yield assays. […] Vero cells in 12-well plates were infected with dengue-2 virus at a multiplicity of infection (MOI) of 0.1, treated with compound (or DMSO as a control), incubated at 37° C., harvested 48 hours post infection and titered on Vero cells as described above. The EC50 was calculated through ExcelFit. Activities against other serotypes of dengue virus were determined in a similar way.

[1] = Vero cells, MOI 0.1, harvested 48 hours post infection

| SMILES | EC50 (Vero, 48 h) | EC50 [1] |
| --- | --- | --- |
| Cc1ccc2sc(-c3ccc(NC(=O)c4ccccc4Cl)cc3)nc2c1 [Compound 49, 2-Chloro-N-[4-(5-methyl-benzothiazol-2-yl)-phenyl]-benzamide] | > 25 µM | – |
| O=C(Nc1ccccc1-c1nc2ccccc2s1)c1cc(Br)ccc1Cl [Compound 102, N-(2-Benzothiazol-2-yl-phenyl)-5-bromo-2-chloro-benzamide] | – | > 25 µM |
| Cc1cccc(C(=O)Nc2ccc(-c3nc4ccccc4s3)c(Cl)c2)c1 [Compound 39, N-(4-Benzothiazol-2-yl-3-chloro-phenyl)-3-methyl-benzamide] | – | 10 to 25 µM |
| COc1cc(C(=O)Nc2ccc(-c3nc4ccccc4s3)cc2)cc(OC)c1OC [Compound 48, N-(4-Benzothiazol-2-yl-phenyl)-3,4,5-trimethoxy-benzamide] | – | > 25 µM |
| O=C(Nc1ccccc1-c1nc2ccccc2s1)c1cccc(OCc2ccccc2)c1 [Compound 111, N-(2-Benzothiazol-2-yl-phenyl)-3-benzyloxy-benzamide] | – | > 25 µM |
| O=C(Nc1ccc(-c2nc3ccccc3s2)cc1)c1ccc(S(=O)(=O)N2CCCCC2)cc1 [Compound 17, N-(4-Benzothiazol-2-yl-phenyl)-4-(piperidine-1-sulfonyl)-benzamide] | 10 to 25 µM | – |
| COc1cccc(OC)c1C(=O)Nc1cccc(-c2nc3ccccc3s2)c1 [Compound 13, N-(3-Benzothiazol-2-yl-phenyl)-2,6-dimethoxy-benzamide] | – | 1 to 10 µM |
| COc1c(Cl)cc(C(=O)Nc2cc(-c3nc4ccccc4s3)ccc2Cl)cc1Cl [Compound 77, N-(5-Benzothiazol-2-yl-2-chloro-phenyl)-3,5-dichloro-4-methoxy-benzamide] | – | > 25 µM |
| O=C(Nc1ccccc1-c1nc2ccccc2s1)c1cccc(F)c1 [Compound 110, N-(2-Benzothiazol-2-yl-phenyl)-3-fluoro-benzamide] | – | > 25 µM |
| Cc1ccc(C(=O)Nc2cccc(-c3nc4ccccc4s3)c2)cc1 [Compound 89, N-(3-Benzothiazol-2-yl-phenyl)-4-methyl-benzamide] | – | > 25 µM |
| COc1cccc(OC)c1C(=O)Nc1ccc(Cl)c(-c2nc3ccccc3s2)c1 [Compound 118, N-(3-Benzothiazol-2-yl-4-chloro-phenyl)-2,6-dimethoxy-benzamide] | – | > 25 µM |
| CC(=O)Nc1ccc(C(=O)Nc2ccc(-c3nc4ccc(C)cc4s3)cc2)cc1 [Compound 80, 4-Acetylamino-N-[4-(6-methyl-benzothiazol-2-yl)-phenyl]-benzamide] | – | > 25 µM |
| O=C(Nc1ccc(-c2nc3ccccc3s2)c(O)c1)c1ccccc1F [Compound 54, N-(4-Benzothiazol-2-yl-3-hydroxy-phenyl)-2-fluoro-benzamide] | – | > 25 µM |
| O=C(Nc1ccc(O)c(-c2nc3ccccc3s2)c1)c1ccc2c(c1)OCCO2 [Compound 72, 2,3-Dihydro-benzo[1,4]dioxine-6-carboxylic acid (3-benzothiazol-2-yl-4-hydroxy-phenyl)-amide] | – | > 25 µM |
| COc1cccc(C(=O)Nc2ccc(O)c(-c3nc4ccccc4s3)c2)c1 [Compound 58, N-(3-Benzothiazol-2-yl-4-hydroxy-phenyl)-3-methoxy-benzamide] | – | > 25 µM |
| CCCOc1cccc(C(=O)Nc2cc(-c3nc4ccccc4s3)ccc2C)c1 [Compound 74, N-(5-Benzothiazol-2-yl-2-methyl-phenyl)-3-propoxy-benzamide] | – | > 25 µM |
| COc1cc(OC)cc(C(=O)Nc2ccccc2-c2nc3ccccc3s2)c1 [Compound 104, N-(2-Benzothiazol-2-yl-phenyl)-3,5-dimethoxy-benzamide] | – | > 25 µM |
| Cc1cccc(C(=O)Nc2cccc(-c3nc4ccccc4s3)c2)c1 [Compound 12, N-(3-Benzothiazol-2-yl-phenyl)-3-methyl-benzamide] | – | 1 to 10 µM |
| O=C(Nc1ccc(-c2nc3ccccc3s2)c(O)c1)c1ccc(F)cc1 [Compound 22, N-(4-Benzothiazol-2-yl-3-hydroxy-phenyl)-4-fluoro-benzamide] | – | 10 to 25 µM |
| Cc1ccccc1C(=O)Nc1cc(-c2nc3ccccc3s2)ccc1Cl [Compound 71, N-(5-Benzothiazol-2-yl-2-chloro-phenyl)-2-methyl-benzamide] | – | > 25 µM |
| Cc1ccccc1C(=O)Nc1ccc(O)c(-c2nc3ccccc3s2)c1 [Compound 55, N-(3-Benzothiazol-2-yl-4-hydroxy-phenyl)-2-methyl-benzamide] | – | > 25 µM |
| Cc1ccc(-c2nc3ccccc3s2)cc1NC(=O)c1ccc2c(c1)OCO2 [Compound 121, Benzo[1,3]dioxole-5-carboxylic acid (5-benzothiazol-2-yl-2-methyl-phenyl)-amide] | > 25 µM | – |
| Cc1c(NC(=O)c2cc([N+](=O)[O-])ccc2Cl)cccc1-c1nc2ccccc2s1 [Compound 63, N-(3-Benzothiazol-2-yl-2-methyl-phenyl)-2-chloro-5-nitro-benzamide] | – | > 25 µM |

| SMILES | EC50 (Vero, 48 h) | EC50 [1] |
| --- | --- | --- |
| O=C(Nc1ccccc1-c1nc2ccccc2s1)c1ccccc1[N+](=O)[O-] [Compound 34, N-(2-Benzothiazol-2-yl-phenyl)-2-nitro-benzamide] | – | 10 to 25 µM |
| Cc1cc(C)cc(C(=O)Nc2ccc(-c3nc4ccccc4s3)cc2C)c1 [Compound 38, N-(4-Benzothiazol-2-yl-2-methyl-phenyl)-3,5-dimethyl-benzamide] | – | 10 to 25 µM |
| O=C(Nc1ccccc1-c1nc2ccccc2s1)c1cccc2c(Cl)cccc12 [Compound 109, 5-Chloro-naphthalene-1-carboxylic acid (2-benzothiazol-2-yl-phenyl)-amide] | – | > 25 µM |
| COc1ccc(Cl)cc1C(=O)Nc1ccc(-c2nc3ccccc3s2)cc1 [Compound 31, N-(4-Benzothiazol-2-yl-phenyl)-5-chloro-2-methoxy-benzamide] | – | 10 to 25 µM |
| O=C(Nc1ccc(-c2nc3ccccc3s2)cc1)c1ccccc1F [Compound 21, N-(4-Benzothiazol-2-yl-phenyl)-2-fluoro-benzamide] | – | 10 to 25 µM |
| N#Cc1ccc(C(=O)Nc2ccc(Cl)c(-c3nc4ccccc4s3)c2)c(F)c1 [Compound 82, N-(3-Benzothiazol-2-yl-4-chloro-phenyl)-4-cyano-2-fluoro-benzamide] | – | > 25 µM |
| O=C(Nc1ccc(-c2nc3ccccc3s2)c(O)c1)c1cccc(F)c1 [Compound 24, N-(4-Benzothiazol-2-yl-3-hydroxy-phenyl)-3-fluoro-benzamide] | – | 10 to 25 µM |
| Cc1cc(C(=O)Nc2ccc(-c3nc4ccccc4s3)c(Cl)c2)ccc1[N+](=O)[O-] [Compound 119, N-(4-Benzothiazol-2-yl-3-chloro-phenyl)-3-methyl-4-nitro-benzamide] | – | > 25 µM |
| O=C(Nc1cccc(-c2nc3ccccc3s2)c1)c1cc(I)ccc1I [Compound 45, N-(3-Benzothiazol-2-yl-phenyl)-2,5-diiodo-benzamide] | – | > 25 µM |
| O=C(Nc1ccc(-c2nc3ccccc3s2)c(Cl)c1)c1cccc([N+](=O)[O-])c1 [Compound 120, N-(4-Benzothiazol-2-yl-3-chloro-phenyl)-3-nitro-benzamide] | – | > 25 µM |
| O=C(Nc1ccc(-c2nc3ccccc3s2)c(Cl)c1)c1ccc(F)cc1 [Compound 123, N-(4-Benzothiazol-2-yl-3-chloro-phenyl)-4-fluoro-benzamide] | – | > 25 µM |
| O=C(Nc1ccc(-c2nc3ccccc3s2)cc1)c1c(F)c(F)c(F)c(F)c1F [Compound 36, N-(4-Benzothiazol-2-yl-phenyl)-2,3,4,5,6-pentafluoro-benzamide] | – | 10 to 25 µM |
| O=C(Nc1ccccc1-c1nc2ccccc2s1)c1ccccc1F [Compound 93, N-(2-Benzothiazol-2-yl-phenyl)-2-fluoro-benzamide] | – | > 25 µM |
| Cc1ccc2nc(-c3ccc(NC(=O)c4ccc(N(C)C)cc4)cc3)sc2c1 [Compound 7, 4-Dimethylamino-N-[4-(6-methyl-benzothiazol-2-yl)-phenyl]-benzamide] | – | < 1 µM |
| O=C(Nc1cccc(-c2nc3ccccc3s2)c1)c1ccc(S(=O)(=O)N2CCCC2)cc1 [Compound 20, N-(3-Benzothiazol-2-yl-phenyl)-4-(pyrrolidine-1-sulfonyl)-benzamide] | – | 10 to 25 µM |
| Cc1ccc(-c2nc3ccccc3s2)cc1NC(=O)c1ccc(F)cc1 [Compound 50, N-(5-Benzothiazol-2-yl-2-methyl-phenyl)-4-fluoro-benzamide] | – | > 25 µM |
| COc1c(Cl)cc(C(=O)Nc2ccccc2-c2nc3ccccc3s2)cc1Cl [Compound 108, N-(2-Benzothiazol-2-yl-phenyl)-3,5-dichloro-4-methoxy-benzamide] | – | > 25 µM |
| Cc1ccc(C(=O)Nc2cc(-c3nc4ccccc4s3)ccc2C)c(C)c1 [Compound 117, N-(5-Benzothiazol-2-yl-2-methyl-phenyl)-2,4-dimethyl-benzamide] | – | > 25 µM |
| COc1ccccc1C(=O)Nc1cc(-c2nc3ccccc3s2)ccc1C [Compound 52, N-(5-Benzothiazol-2-yl-2-methyl-phenyl)-2-methoxy-benzamide] | – | > 25 µM |
| COc1ccc(C(=O)Nc2cccc(-c3nc4ccccc4s3)c2C)cc1[N+](=O)O [Compound 64, N-(3-Benzothiazol-2-yl-2-methyl-phenyl)-4-methoxy-3-nitro-benzamide] | – | > 25 µM |
| CCOC(=O)N1CCN(S(=O)(=O)c2ccc(C(=O)Nc3ccccc3-c3nc4ccccc4s3)cc2)CC1 [Compound 47, 4-[4-(2-Benzothiazol-2-yl-phenylcarbamoyl)-benzenesulfonyl]-piperazine-1-carboxylic acid ethyl ester] | – | > 25 µM |
| O=C(Nc1cccc(-c2nc3ccccc3s2)c1)c1ccc(F)cc1 [Compound 90, N-(3-Benzothiazol-2-yl-phenyl)-4-fluoro-benzamide] | – | > 25 µM |
| CCN(CC)S(=O)(=O)c1ccc(C(=O)Nc2ccccc2-c2nc3ccccc3s2)cc1 [Compound 94, N-(2-Benzothiazol-2-yl-phenyl)-4-diethylsulfamoyl-benzamide] | – | > 25 µM |
